US20240279240A1, “HETEROCYCLIC DERIVATIVES AS JANUS KINASE INHIBITORS” (CHIESI FARMACEUTICI S.P.A., priority 2021, published 2024)

What was measured:
JAK 1 = JAK 1 (Homo sapiens, UniProt P23458); test: Biochemical potency on JAK1, TR-FRET LANCE Ultra kinase assay (examples 1-99); conditions: ATP at Km (20 μM), read-out: JAK1 inhibitory activity (pIC50 class) (converted)
Procedure: (§1) The objective of this study was to assess the capability of compounds to inhibit all 4 JAK isoforms activity in a cell-free environment. Assay for JAK 1, JAK 2, JAK 3 and TYK2 were performed by Time-resolved fluorescence resonance energy transfer (TR-FRET) technology. It consists in the interaction of two labelled binding partners detected by the energy transfer from an excited donor to an acceptor dye and measurement of light emission by the acceptor dye. LANCE Ultra kinase assay was used. In presence of JAK 1, JAK 2, JAK 3 and TYK2 kinases and ATP (corresponding to Km), the ULight peptide substrate (LANCE Ulight-JAK-1 (Tyr1023) Peptide, Perkin Elmer, TRF0121) is phosphorylated. It is then captured by Eu-anti-phospho-substrate antibody (LANCE Eu-W1024 Anti-phosphotyrosine (PT66), Perkin Elmer, AD0069), which bring the Eu-chelate donor and ULight acceptor dyes into close proximity. Upon excitation at 320 nm, the Eu-chelate transfers its energy to the ULight dye, resulting in a fluorescent light emission at 665 nm.
(§2) Serial dilutions of compounds in pure DMSO are prepared from 10 mM DMSO stock solutions. Compounds were tested in 384-well plate for 11 consecutive 5-fold dilutions starting from 20 μM highest concentration (20 μM-[…]). 200 nL of compound were transferred from mother plate to test plate by using Mosquito (TTP labtech). Assay was performed in 384-well Perkin Elmer test plate in 20 μL assay volume (kinase reaction) and 40 μL total volume (stopping reagent and antibody detection reagents). In 10 μL of substrate solution (peptide+ATP) 30/50/20/10 nM of peptide and 20/0.7/0.2/12 μM of ATP were added for JAK 1, JAK 2, JAK 3 and TYK2 respectively. 10 μL of enzyme solution was added to kinase reaction at these concentrations: 0.15/0.083/0.025/0.144 ng/μL of JAK 1, JAK 2, JAK 3 and TYK2 respectively. After shaking and 1.5 h of incubation at r.t., 20 μL of Stop (10 μL EDTA) and Detection mixture (10 μL Europium-anti-phospho antibody, final: 0.5 nM) were added. Reading was performed after 1 h of incubation on a EnVision 2104 reader (Perkin Elmer).
(§3) Calculation of IC50 data, curves and QC analysis was performed by using Excel tool and GraphPadPrism software, v9. Briefly, individual concentration-effect curves are generated by plotting the logarithm of the tested concentration of tested compounds (X) vs. corresponding percent inhibition values (Y) using least squares (ordinary) fit. Best fit IC50 values are calculated using Log(inhibitor) vs. normalized response—Variable slope equation, where Y=100/(1+10^((Log IC50−X)*HillSlope)). QC criteria parameters (Z′, S:B, R2, HillSlope) were checked for every IC50 curve. Calculation of IC50 data, curves and QC analysis were made using Excel tools and GraphPadPrism software. QC criteria parameters: Z′≥0.5, Hill Slope range 0.5 to 5, S:B>2.

JAK 3 = molecular target: T1, JAK 3 (Homo sapiens, UniProt P52333); test: Biochemical potency on JAK3, TR-FRET LANCE Ultra kinase assay (examples 1-99); conditions: ATP at Km (0.2 μM), read-out: JAK3 inhibitory activity (pIC50 class) (converted)
T1 sequence (P52333 1-1124): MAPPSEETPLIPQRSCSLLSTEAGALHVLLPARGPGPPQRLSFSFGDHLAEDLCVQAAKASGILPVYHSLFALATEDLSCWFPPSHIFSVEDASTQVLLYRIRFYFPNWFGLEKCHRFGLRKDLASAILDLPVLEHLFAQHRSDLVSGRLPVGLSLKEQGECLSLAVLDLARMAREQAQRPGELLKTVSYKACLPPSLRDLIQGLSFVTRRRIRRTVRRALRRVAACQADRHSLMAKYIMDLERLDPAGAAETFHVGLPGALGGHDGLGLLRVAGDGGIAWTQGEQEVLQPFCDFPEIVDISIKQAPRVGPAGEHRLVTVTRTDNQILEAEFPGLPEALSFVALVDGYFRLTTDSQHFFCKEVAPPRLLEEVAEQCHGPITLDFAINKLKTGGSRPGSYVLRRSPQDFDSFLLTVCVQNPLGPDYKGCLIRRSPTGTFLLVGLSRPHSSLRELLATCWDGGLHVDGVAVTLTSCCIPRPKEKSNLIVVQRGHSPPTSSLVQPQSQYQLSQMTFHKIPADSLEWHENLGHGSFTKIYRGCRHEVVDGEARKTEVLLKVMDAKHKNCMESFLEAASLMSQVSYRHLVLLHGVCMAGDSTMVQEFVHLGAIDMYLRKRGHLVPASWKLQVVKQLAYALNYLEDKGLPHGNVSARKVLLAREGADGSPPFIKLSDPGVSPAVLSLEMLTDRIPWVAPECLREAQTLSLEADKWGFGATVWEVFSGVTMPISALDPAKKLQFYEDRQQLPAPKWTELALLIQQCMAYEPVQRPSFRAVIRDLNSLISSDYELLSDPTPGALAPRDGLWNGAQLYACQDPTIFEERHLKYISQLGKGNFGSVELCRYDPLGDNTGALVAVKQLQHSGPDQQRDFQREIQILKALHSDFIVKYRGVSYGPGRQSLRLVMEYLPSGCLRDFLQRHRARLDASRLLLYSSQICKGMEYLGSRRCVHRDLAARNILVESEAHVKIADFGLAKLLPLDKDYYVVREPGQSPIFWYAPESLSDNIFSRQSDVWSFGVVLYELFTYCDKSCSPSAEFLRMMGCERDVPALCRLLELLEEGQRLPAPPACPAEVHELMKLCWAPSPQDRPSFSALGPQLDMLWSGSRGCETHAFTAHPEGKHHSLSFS
Procedure: as §1, §2, §3

JAK 2 = JAK 2 (Homo sapiens, UniProt O60674); test: Biochemical potency on JAK2, TR-FRET LANCE Ultra kinase assay (examples 1-99); conditions: ATP at Km (0.7 μM), read-out: JAK2 inhibitory activity (pIC50 class) (converted)
Chain of JAK 2 (O60674 whole entry): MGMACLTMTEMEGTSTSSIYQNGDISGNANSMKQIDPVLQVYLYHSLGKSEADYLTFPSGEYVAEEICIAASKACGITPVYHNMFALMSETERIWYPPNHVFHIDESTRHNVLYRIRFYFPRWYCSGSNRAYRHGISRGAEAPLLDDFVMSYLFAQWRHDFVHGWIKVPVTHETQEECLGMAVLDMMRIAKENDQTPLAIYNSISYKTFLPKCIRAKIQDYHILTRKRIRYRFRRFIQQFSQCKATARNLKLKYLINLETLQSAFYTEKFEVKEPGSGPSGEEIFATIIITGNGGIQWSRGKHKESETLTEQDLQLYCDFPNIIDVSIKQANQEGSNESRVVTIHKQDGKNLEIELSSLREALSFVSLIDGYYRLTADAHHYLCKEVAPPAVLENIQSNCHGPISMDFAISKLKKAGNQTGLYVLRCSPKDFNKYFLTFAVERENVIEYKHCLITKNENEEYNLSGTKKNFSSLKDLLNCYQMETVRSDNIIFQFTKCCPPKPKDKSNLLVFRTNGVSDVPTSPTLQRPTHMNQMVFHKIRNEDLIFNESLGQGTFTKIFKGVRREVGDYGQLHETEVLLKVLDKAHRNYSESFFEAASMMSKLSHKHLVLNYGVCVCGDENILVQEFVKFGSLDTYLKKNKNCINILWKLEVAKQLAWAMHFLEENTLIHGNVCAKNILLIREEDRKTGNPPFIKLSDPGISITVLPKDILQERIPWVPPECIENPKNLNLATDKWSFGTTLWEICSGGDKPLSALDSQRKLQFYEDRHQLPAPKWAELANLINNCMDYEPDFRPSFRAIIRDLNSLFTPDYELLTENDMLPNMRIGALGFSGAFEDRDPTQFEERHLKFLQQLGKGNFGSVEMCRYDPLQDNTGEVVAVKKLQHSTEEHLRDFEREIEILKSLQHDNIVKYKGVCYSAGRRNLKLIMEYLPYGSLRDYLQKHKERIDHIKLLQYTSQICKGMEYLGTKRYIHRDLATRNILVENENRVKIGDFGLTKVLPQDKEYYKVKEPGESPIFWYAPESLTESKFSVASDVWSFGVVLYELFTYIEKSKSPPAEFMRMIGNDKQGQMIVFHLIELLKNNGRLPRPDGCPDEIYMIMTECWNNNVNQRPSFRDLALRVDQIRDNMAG
Procedure: as §1, §2, §3

TYK2 = TYK2 (Homo sapiens, UniProt P29597); test: Biochemical potency on Tyk2, TR-FRET LANCE Ultra kinase assay (examples 1-99); conditions: ATP at Km (12 μM), read-out: Tyk2 inhibitory activity (pIC50 class) (converted)
Chain of TYK2 (P29597 whole entry): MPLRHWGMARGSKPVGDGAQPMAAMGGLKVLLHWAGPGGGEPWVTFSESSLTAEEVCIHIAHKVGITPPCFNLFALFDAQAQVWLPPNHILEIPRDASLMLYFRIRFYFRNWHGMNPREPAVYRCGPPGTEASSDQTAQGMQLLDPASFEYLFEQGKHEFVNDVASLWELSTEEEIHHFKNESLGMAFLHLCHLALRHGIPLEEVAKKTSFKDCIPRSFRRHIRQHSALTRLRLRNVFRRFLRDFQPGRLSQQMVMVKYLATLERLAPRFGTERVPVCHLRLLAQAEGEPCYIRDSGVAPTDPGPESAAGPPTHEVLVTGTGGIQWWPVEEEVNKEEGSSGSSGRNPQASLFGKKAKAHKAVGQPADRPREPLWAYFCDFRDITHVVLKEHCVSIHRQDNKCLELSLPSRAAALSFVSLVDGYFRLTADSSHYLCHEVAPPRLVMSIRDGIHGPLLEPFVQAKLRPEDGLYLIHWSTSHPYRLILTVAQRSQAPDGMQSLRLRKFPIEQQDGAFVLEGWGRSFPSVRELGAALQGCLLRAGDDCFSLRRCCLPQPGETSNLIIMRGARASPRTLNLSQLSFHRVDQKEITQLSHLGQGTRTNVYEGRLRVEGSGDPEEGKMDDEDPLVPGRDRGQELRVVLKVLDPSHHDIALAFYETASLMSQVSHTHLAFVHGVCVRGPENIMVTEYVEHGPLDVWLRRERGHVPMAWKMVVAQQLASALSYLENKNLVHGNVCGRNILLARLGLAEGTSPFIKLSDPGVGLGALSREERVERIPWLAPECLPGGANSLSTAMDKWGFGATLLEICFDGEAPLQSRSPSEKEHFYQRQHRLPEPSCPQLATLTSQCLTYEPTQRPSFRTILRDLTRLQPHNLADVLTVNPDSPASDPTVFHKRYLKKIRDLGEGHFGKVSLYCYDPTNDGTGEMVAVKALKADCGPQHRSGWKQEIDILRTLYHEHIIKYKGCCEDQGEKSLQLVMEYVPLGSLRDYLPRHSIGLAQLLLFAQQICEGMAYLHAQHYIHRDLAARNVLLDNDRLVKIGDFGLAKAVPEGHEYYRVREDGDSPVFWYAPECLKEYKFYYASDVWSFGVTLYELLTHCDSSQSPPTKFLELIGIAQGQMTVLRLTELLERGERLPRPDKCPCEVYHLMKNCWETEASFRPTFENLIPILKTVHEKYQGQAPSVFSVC
Procedure: as §1, §2, §3

Chain of JAK 1 (P23458 whole entry, canonical isoform): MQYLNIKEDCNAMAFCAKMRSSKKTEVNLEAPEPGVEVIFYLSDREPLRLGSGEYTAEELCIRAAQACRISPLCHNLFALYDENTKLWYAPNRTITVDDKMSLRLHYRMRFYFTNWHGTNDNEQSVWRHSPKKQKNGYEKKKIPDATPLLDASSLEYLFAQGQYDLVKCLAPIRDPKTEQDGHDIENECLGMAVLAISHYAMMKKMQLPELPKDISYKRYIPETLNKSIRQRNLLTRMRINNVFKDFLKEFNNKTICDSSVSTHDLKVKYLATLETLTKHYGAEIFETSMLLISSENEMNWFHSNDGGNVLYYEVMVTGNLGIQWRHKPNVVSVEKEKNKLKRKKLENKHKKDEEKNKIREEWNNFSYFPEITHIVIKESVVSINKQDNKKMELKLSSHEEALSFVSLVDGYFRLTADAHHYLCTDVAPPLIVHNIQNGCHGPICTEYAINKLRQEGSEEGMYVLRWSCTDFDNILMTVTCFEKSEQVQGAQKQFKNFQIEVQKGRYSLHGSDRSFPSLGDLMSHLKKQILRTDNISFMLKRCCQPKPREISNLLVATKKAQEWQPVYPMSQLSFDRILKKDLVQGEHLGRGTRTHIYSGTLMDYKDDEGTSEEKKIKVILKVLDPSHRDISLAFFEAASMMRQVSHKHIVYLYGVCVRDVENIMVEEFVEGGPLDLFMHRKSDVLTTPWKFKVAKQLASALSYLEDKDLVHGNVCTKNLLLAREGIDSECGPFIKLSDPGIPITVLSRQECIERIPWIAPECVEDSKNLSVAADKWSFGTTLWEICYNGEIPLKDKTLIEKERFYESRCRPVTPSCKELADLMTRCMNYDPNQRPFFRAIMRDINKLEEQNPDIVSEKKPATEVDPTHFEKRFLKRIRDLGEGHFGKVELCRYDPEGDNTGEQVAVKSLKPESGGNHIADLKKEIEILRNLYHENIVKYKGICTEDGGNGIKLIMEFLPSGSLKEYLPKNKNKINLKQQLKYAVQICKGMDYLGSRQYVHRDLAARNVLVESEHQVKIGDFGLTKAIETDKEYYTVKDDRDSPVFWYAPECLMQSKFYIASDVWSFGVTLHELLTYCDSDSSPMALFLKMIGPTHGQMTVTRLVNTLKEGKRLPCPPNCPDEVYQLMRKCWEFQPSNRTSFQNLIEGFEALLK

Row | IC50 (JAK 1) | IC50 (JAK 3) | IC50 (JAK 2) | IC50 (TYK2) | SMILES
1 | 5.01 to 50.1 nM | 5.01 to 50.1 nM | 5.01 to 50.1 nM | > 50.1 nM | COc1ccc(C)cc1-n1nc(NCCN(C)C)c2cnc(-c3cnn4cccnc34)cc21 [Example 45, N1-(1-(2-methoxy-5-methylphenyl)-6-(pyrazolo[1,5-a]pyrimidin-3-yl)-1H-pyrazolo[4,3-c]pyridin-3-yl)-N2,N2-dimethylethane-1,2-diamine]
2 | 5.01 to 50.1 nM | ≤ 5.01 nM | ≤ 5.01 nM | 5.01 to 50.1 nM | COCCSc1ccc(OC(F)F)c(-n2nc(C)c3cnc(Nc4ncc[nH]c4=O)cc32)c1 [Example 93, 3-((1-(2-(difluoromethoxy)-5-((2-methoxyethyl)thio)phenyl)-3-methyl-1H-pyrazolo[4,3-c]pyridin-6-yl)amino)pyrazin-2(1H)-one]
3 | 5.01 to 50.1 nM | 5.01 to 50.1 nM | 5.01 to 50.1 nM | > 50.1 nM | Cc1nn(-c2cc(SC3CC3)ccc2OC(F)F)c2cc(-c3cnn4cccnc34)ncc12 [Example 71, 1-(5-(cyclopropylthio)-2-(difluoromethoxy)phenyl)-3-methyl-6-(pyrazolo[1,5-a]pyrimidin-3-yl)-1H-pyrazolo[4,3-c]pyridine]
4 | 5.01 to 50.1 nM | 5.01 to 50.1 nM | 5.01 to 50.1 nM | > 50.1 nM | CC(=O)N1CCC(Sc2ccc(OC(F)F)c(-n3nc(C)c4cnc(-c5cnn6cccnc56)cc43)c2)CC1 [Example 75, 1-(4-((4-(difluoromethoxy)-3-(3-methyl-6-(pyrazolo[1,5-a]pyrimidin-3-yl)-1H-pyrazolo[4,3-c]pyridin-1-yl)phenyl)thio)piperidin-1-yl)ethan-1-one]
5 | 5.01 to 50.1 nM | 5.01 to 50.1 nM | ≤ 5.01 nM | 5.01 to 50.1 nM | COc1ccc(Cl)cc1-n1ncc2c(O)nc(-c3cnn4cccnc34)cc21 [Example 57, 1-(5-chloro-2-methoxyphenyl)-6-(pyrazolo[1,5-a]pyrimidin-3-yl)-1H-pyrazolo[4,3-c]pyridin-4-ol]
6 | 5.01 to 50.1 nM | 5.01 to 50.1 nM | 5.01 to 50.1 nM | 5.01 to 50.1 nM | COc1ccc(Cl)cc1-n1nc(N(C)C)c2cnc(-c3cnn4cccnc34)cc21 [Example 42, 1-(5-chloro-2-methoxyphenyl)-N,N-dimethyl-6-(pyrazolo[1,5-a]pyrimidin-3-yl)-1H-pyrazolo[4,3-c]pyridin-3-amine]
7 | ≤ 5.01 nM | ≤ 5.01 nM | ≤ 5.01 nM | 5.01 to 50.1 nM | Cc1nn(-c2cc(S(C)(=O)=O)ccc2OC(F)F)c2cc(Nc3ncc[nH]c3=O)ncc12 [Example 94, 3-((1-(2-(difluoromethoxy)-5-(methylsulfonyl)phenyl)-3-methyl-1H-pyrazolo[4,3-c]pyridin-6-yl)amino)pyrazin-2(1H)-one]
8 | 5.01 to 50.1 nM | 5.01 to 50.1 nM | 5.01 to 50.1 nM | > 50.1 nM | COc1ccc(S(C)(=O)=O)cc1-n1nc(C(=O)NCCCN2CCOCC2)c2cnc(-c3cnn4cccnc34)cc21 [Example 84, 1-(2-methoxy-5-(methylsulfonyl)phenyl)-N-(3-morpholinopropyl)-6-(pyrazolo[1,5-a]pyrimidin-3-yl)-1H-pyrazolo[4,3-c]pyridine-3-carboxamide]
9 | 5.01 to 50.1 nM | ≤ 5.01 nM | 5.01 to 50.1 nM | > 50.1 nM | CCCS(=O)(=O)c1ccc(OC)c(-n2nc(C)c3cnc(-c4cnn5cccnc45)cc32)c1 [Example 10, 1-(2-methoxy-5-(propylsulfonyl)phenyl)-3-methyl-6-(pyrazolo[1,5-a]pyrimidin-3-yl)-1H-pyrazolo[4,3-c]pyridine]
10 | > 50.1 nM | 5.01 to 50.1 nM | 5.01 to 50.1 nM | > 50.1 nM | Cc1nn(-c2cc(Cl)ccc2CO)c2cc(-c3cnn4cccnc34)ncc12 [Example 62, (4-chloro-2-(3-methyl-6-(pyrazolo[1,5-a]pyrimidin-3-yl)-1H-pyrazolo[4,3-c]pyridin-1-yl)phenyl)methanol]
11 | 5.01 to 50.1 nM | 5.01 to 50.1 nM | 5.01 to 50.1 nM | 5.01 to 50.1 nM | COc1ccc(Cl)cc1-n1nc(C(=O)N[C@H]2C[C@H](N)C2)c2cnc(-c3cnn4cccnc34)cc21 [Example 77, N-((1r,3r)-3-aminocyclobutyl)-1-(5-chloro-2-methoxyphenyl)-6-(pyrazolo[1,5-a]pyrimidin-3-yl)-1H-pyrazolo[4,3-c]pyridine-3-carboxamide]
12 | ≤ 5.01 nM | ≤ 5.01 nM | ≤ 5.01 nM | 5.01 to 50.1 nM | Cc1nn(-c2cc(Br)ccc2OC(F)F)c2cc(-c3cnn4cccnc34)ncc12 [Example 63, 1-(5-bromo-2-(difluoromethoxy)phenyl)-3-methyl-6-(pyrazolo[1,5-a]pyrimidin-3-yl)-1H-pyrazolo[4,3-c]pyridine]
13 | 5.01 to 50.1 nM | ≤ 5.01 nM | ≤ 5.01 nM | > 50.1 nM | CC(=O)N1CCC(S(=O)(=O)c2ccc(OC(F)F)c(-n3nc(C)c4cnc(-c5cnn6cccnc56)cc43)c2)C1 (stereo not drawn) [Example 24, 1-(3-((4-(difluoromethoxy)-3-(3-methyl-6-(pyrazolo[1,5-a]pyrimidin-3-yl)-1H-pyrazolo[4,3-c]pyridin-1-yl)phenyl)sulfonyl)pyrrolidin-1-yl)ethan-1-one]
14 | 5.01 to 50.1 nM | > 50.1 nM | 5.01 to 50.1 nM | > 50.1 nM | COc1ccc(S(=O)(=O)NCCN2CCOCC2)cc1-n1nc(C)c2cnc(-c3cnn4cccnc34)cc21 [Example 19, 4-methoxy-3-(3-methyl-6-(pyrazolo[1,5-a]pyrimidin-3-yl)-1H-pyrazolo[4,3-c]pyridin-1-yl)-N-(2-morpholinoethyl)benzenesulfonamide]
15 | 5.01 to 50.1 nM | 5.01 to 50.1 nM | 5.01 to 50.1 nM | > 50.1 nM | CNC(=O)CNc1nc(-c2cnn3cccnc23)cc2c1cnn2-c1cc(Cl)ccc1OC [Example 54, 2-((1-(5-chloro-2-methoxyphenyl)-6-(pyrazolo[1,5-a]pyrimidin-3-yl)-1H-pyrazolo[4,3-c]pyridin-4-yl)amino)-N-methylacetamide]
